What was measured:
[1] = tested on: ATXN3/Q75 aggregation in 293 ATXN3/Q75-GFP cells; assay: ATXN3/Q75 aggregation analysis by high-content analysis in 293 ATXN3/Q75-GFP cells; format: cell-based, Human; settings: at 100 nM; 8 h pre-treatment, then doxycycline and oxaliplatin 6 days
Experimental: (§1) Human 293 ATXN3/Q75-GFP cells were cultured in Dulbecco's modified Eagle's medium (DMEM) containing 10% fetal bovine serum (FBS), 5 μg/mL blasticidin, and 100 μg/mL hygromycin (InvivoGen). Human neuroblastoma SH-SY5Y cells (ATCC No. CRL-2266) were cultured in DMEM F12 supplemented with 10% FBS. Mouse RAW 264.7 macrophages and BV-2 microglia were cultured in DMEM containing 10% FBS. Cells were all cultured in a 37° C. incubator containing 5% CO2.
293 ATXN3/Q75-GFP cells were cultured in 96-well (2×10^4/well) plates for 24 h and treated with different concentrations of suberoylanilide hydroxamic acid (SAHA, Cayman Chemical) (100 nM), Paeonia lactiflora, Glycyrrhiza uralensis, or Shao Yao Kan Tsao Tang (SK Tang) (0.01-10 μg/mL) for 8 h. Next, doxycycline (10 μg/mL, BD) and oxaliplatin (5 μM, Sigma) were added for 6 days. Cells were then stained with Hoechst 33342 (0.1 μg/mL, Sigma-Aldrich). Aggregation was then analyzed by high-content analysis (HCA) system (ImageXpressMICRO, Molecular Devices). The histone deacetylase inhibitor SAHA, known to reduce SDS-insoluble polyQ aggregates, was included for comparison.
To normalize data, the relative aggregation level in untreated cells is set as 100%. […] Good aggregation-inhibitory potential can be seen from Paeonia lactiflora (75-78% at 1-10 μg/mL), Glycyrrhiza uralensis (73-85% at 0.01-1 μg/mL), and SK Tang (79-84% at 0.01-10 μg/mL). […]

[2] = tested on: NO; assay: NO secretion in LPS-stimulated RAW 264.7 macrophages (Griess reagent); format: cell-based, Mouse; settings: 50 μM, 8 h pre-treatment, LPS 1 μg/mL 20 h
Experimental: as §1
(§2) The anti-inflammatory activity of SK Tang was examined using LPS-stimulated RAW 264.7 macrophage and BV-2 microglia. RAW 264.7 cells (10^6) were cultured in 6-well plates for 20 h and pre-treated with celecoxib, which is a nonsteroidal anti-inflammatory drug (named as Cele. in FIGS. 4A-4D) (50 μM) or SK Tang (0.5-2 mg/mL) for 8 h. Next, cells were stimulated by LPS (1 μg/mL) for 20 h. LPS-induced secretions of NO, TNF-α, IL-1β, and IL-6 in RAW 264.7 cells were then determined using Griess reagent or ELISA assay.
(§3) To normalize data, the relative NO/TNF-α/IL-1β/IL-6 level in LPS-stimulated cells is set as 100%. As shown in FIGS. 4A-4D, the exposure of RAW 264.7 cells to LPS results in significant secretions of NO, TNF-α, IL-1β, and IL-6 after 24 h incubation (1-12% vs. 100%, P<0.001). […]

[3] = tested on: TNF-α; assay: TNF-α secretion in LPS-stimulated RAW 264.7 macrophages (ELISA); format: cell-based, Mouse; settings: 50 μM, 8 h pre-treatment, LPS 1 μg/mL 20 h
Experimental: as §1, §2, §3

[4] = tested on: IL-1β; assay: IL-1β secretion in LPS-stimulated RAW 264.7 macrophages (ELISA); format: cell-based, Mouse; settings: 50 μM, 8 h pre-treatment, LPS 1 μg/mL 20 h
Experimental: as §1, §2, §3

[5] = tested on: IL-6; assay: IL-6 secretion in LPS-stimulated RAW 264.7 macrophages (ELISA); format: cell-based, Mouse; settings: 50 μM, 8 h pre-treatment, LPS 1 μg/mL 20 h
Experimental: as §1, §2, §3

| Structure (SMILES) | ATXN3/Q75 aggregation relative to untreated cells (100%) [1] | NO level relative to LPS-stimulated cells (100%) [2] | TNF-α level relative to LPS-stimulated cells (100%) [3] | IL-1β level relative to LPS-stimulated cells (100%) [4] | IL-6 level relative to LPS-stimulated cells (100%) [5] |
| --- | --- | --- | --- | --- | --- |
| O=C(CCCCCCC(=O)Nc1ccccc1)NO [SAHA, suberoylanilide hydroxamic acid] | 85% |  |  |  |  |
| Cc1ccc(-c2cc(C(F)(F)F)nn2-c2ccc(S(N)(=O)=O)cc2)cc1 [celecoxib] |  | 39% | 23% | 20% | 29% |
